Values quoted from earlier work in patent publication US20180353540A1, “Pharmaceutical composition for treating leukemia and preparation method thereof” (Yi Fan Pharmaceutical Academy (Beijing) Co., Ltd., priority 2015, published 2018).

Legend:
ME180 cells = conditions: non-toxic dose 0.5 μg/ml
HL-6 cells = conditions: non-toxic dose 0.5 μg/ml
[1] = tested on: SGC7901 human gastric adenocarcinoma cells

SMILES	induced differentiation effect on ME180 cells (ME180 cells)	expression of c-myc and H-ras oncogenes (RNA dot blot hybridization) (ME180 cells; ME180 cell line)	effect on HL-6 cells (differentiation, maturation, apoptosis) (HL-6 cells)	growth of SGC7901 human gastric adenocarcinoma cells in vitro [1]
CC1=C(/C=C/C(C)=C/C=C/C(C)=C/C(=O)O)C(C)(C)CCC1 [ATRA, all-trans retinoic acid]	better induced differentiation effects	–	–	–
Cc1coc2c1C(=O)C(=O)c1c-2ccc2c1CCCC2(C)C [tanshinone IIA]	better induced differentiation effects	significantly reduced	can induce differentiation and maturation of tumor cells, accompanied by apoptosis	significantly inhibits the growth
